Experimental data as given in patent US6495118B1, “Lipophilic metal complexes for necrosis and infarction imaging” (Schering Aktiengesellschaft, priority 1997, dated 2002).

Legend:
[1] = test system: rats with induced renal infarctions (necrotic area of the kidney); experiment: MRI experiments on animals with induced renal infarctions; assay type: in vivo; details: rat
Experimental: Plasma protein bond: 10% (Europ. Workshop on Magn. Reson. in Medicine, Santiago de Compostela, Spain, Sep. 28-30, 1994).
The induction of the renal infarctions was carried out on anesthetized (Rompun®/Ketavet®, i.p.) rats (Han. Wistar, Schering SPF, about 200 g of body weight) by occlusion of a (caudal) branch of the left renal artery. The contrast medium was administered (dose: 300 or 500 μmol of Gd/kg of body weight) about 24 hours after the induction of infarction. The animals were studied before and up to 24 hours after contrast medium administration by MR-tomography (SISCO SIS 85, 2 tesla; SE sequence, TR: 400 ms, TE: 15 ms, nt=4, ni=128, FOV: 12-7 cm, SD≈3 mm, 1 layer each axial or coronary).
After the MRI experiments were completed, the anesthetized animals were sacrificed by exsanguination (via the V. cava), and both kidneys were prepared. To verify the infarction (size and position), the left (infarcted) kidney was removed and sliced into disks, and then NBT (“vital”) coloring was carried out.

plasma protein = details: cited from earlier work

CCOc1ccc(CC(CN(CCN(CC(=O)[O-])CC(=O)[O-])CC(=O)[O-])N(CC(=O)[O-])CC(=O)[O-])cc1.[Gd+3].[Na+].[Na+] (centres unmarked) [Eovist]
MRI appearance of nonperfused portion of the kidneys ([1]; 300 or 500 μmol of Gd/kg i.v., immediately after substance administration): hypointense area
MRI signal (enhancement) in the necrotic area of the kidneys ([1]; 300 or 500 μmol of Gd/kg i.v., late phase (about 4-6 hours p.i.), all animals studied): considerable signal increase (enhancement)
MRI signal intensity in the non-perfused area ([1]; 300 or 500 μmol of Gd/kg i.v., starting at about 15-30 minutes p.i.): increased somewhat
Correlation of MRI delineation of the necrotic area with histological vital (NBT) coloring ([1]; infarcted left kidney): correlated very well
Plasma protein bond (plasma protein): 10%
